Assay [1] addresses T1, SARS-CoV-2 PLpro (nsp3 1564–1878) (Severe acute respiratory syndrome coronavirus 2, UniProt P0DTD1). Nature of the assay: biochemical. Also noted: FRET-quenched peptide (Pro3) cleavage by PLpro, 10 min pre-incubation, slope over 20 min, normalised to no-compound control. The conditions noted are these: low concentration screen, read-out: % of control remaining.
Assay [2] has as its target T1, SARS-CoV-2 PLpro (nsp3 1564–1878). Nature of the assay: biochemical. The arrangement: FRET-quenched peptide (Pro3) cleavage by PLpro, 10 min pre-incubation, slope over 20 min, normalised to no-compound control. Conditions: high concentration screen, read-out: % of control remaining.

Experimental findings from article PMC8286840, “Identifying SARS-CoV-2 antiviral compounds by screening for small molecule inhibitors of Nsp3 papain-like protease” (Biochemical Journal, 2021) are described below.

Molecules are shown by their SMILES. Counter-ions that a name gives are not always drawn. Like-named read-outs stand apart in the source and are kept apart here. Where a SMILES comes first, the peptide text is derived from it. [ ]: non-standard residue; d: D form. dPhe(4-Cl) = N[C@H](Cc1ccc(Cl)cc1)C(=O)O; d2Nal = N[C@H](Cc1ccc2ccccc2c1)C(=O)O; Lys(iPr) = CC(C)NCCCC[C@H](N)C(=O)O; NMeY = CN[C@@H](Cc1ccc(O)cc1)C(=O)O; d3Pal = N[C@H](Cc1cccnc1)C(=O)O

As to `CC(C)c1cc(C(=O)N2Cc3ccc(CN4CCN(C)CC4)cc3C2)c(O)cc1O` [AT13387], the remaining activity at 1.25 µM in assay [1] (Well no.=5061) was determined as 95%. Also, the remaining activity at 3.75 µM in assay [2] (Well no.=5061) was 99.9%.
As to `CN[C@@H](C)C(=O)N[C@H]1CN(C(=O)CC(C)C)CC[C@H]2CC[C@@H](C(=O)NC(c3ccccc3)c3ccccc3)N2C1=O` [AT-406], the remaining activity at 1.25 µM in assay [1] (Well no.=5071) was 102%. Moreover, the remaining activity at 3.75 µM in assay [2] (Well no.=5071) was found to be 106%.
With `O=C(NC1CCNCC1)c1n[nH]cc1NC(=O)c1c(Cl)cccc1Cl` [AT-7519], in assay [1] (Well no.=2836), the remaining activity at 1.25 µM was determined as 97.9%. Besides, the remaining activity at 3.75 µM in assay [2] (Well no.=2836) was found to be 98.3%.
Consider `O=C(NC(NC(=S)Nc1ccc(F)c([N+](=O)[O-])c1)C(Cl)(Cl)Cl)C(c1ccccc1)c1ccccc1` (centres unmarked) [ATM/ATR Kinase Inhibitor], for which the remaining activity at 1.25 µM in assay [1] (Well no.=2312) came to 98.2%. In addition, the remaining activity at 3.75 µM in assay [2] (Well no.=2312) came out at 98.3%.
As to `CCNC(=O)c1noc(-c2cc(C(C)C)c(O)cc2O)c1-c1ccc(CN2CCOCC2)cc1` [AUY922 (NVP-AUY922)], in assay [1] (Well no.=5005), the remaining activity at 1.25 µM worked out at 103%. For the same molecule, the remaining activity at 3.75 µM in assay [2] (Well no.=5005) stood at 102%.
Take `COc1ccc2c(c1)C(c1ccc(F)cc1)=C(CN1CCCC1)CO2` [AX-024 hydrochloride]: the remaining activity at 1.25 µM in assay [1] (Well no.=6930) was determined as 97%. In addition, in assay [2] (Well no.=6930), the remaining activity at 3.75 µM was found to be 95.2%.
Turning to `Cc1ccc(NC(=O)c2cccc(C(C)(C)C#N)c2)cc1Nc1ccc2ncn(C)c(=O)c2c1` [AZ628], in assay [1] (Well no.=5037), the remaining activity at 1.25 µM turned out to be 88.5%. The remaining activity at 3.75 µM in assay [2] (Well no.=5037) was determined as 94.3%.
On to `Cc1cc(N2C[C@@H](C)N[C@@H](C)C2)ncc1-c1ccc(-c2nc3c(ccn3C)c(=O)[nH]2)cc1` [AZ6102], for which, in assay [1] (Well no.=8482), the remaining activity at 1.25 µM amounted to 97.8%. Also, the remaining activity at 3.75 µM in assay [2] (Well no.=8482) was determined as 96.4%.
Take `COc1cc(OC2CCN(C)CC2)ccc1Nc1ncc2c(n1)n(C1CCCC1)c(=O)n2C` [AZ 3146]: in assay [1] (Well no.=5029), the remaining activity at 1.25 µM was determined as 102%. The remaining activity at 3.75 µM in assay [2] (Well no.=5029) was 101%.
Regarding `Cc1cc(Nc2nc(N[C@@H](C)c3ccc(F)cc3)c(C#N)cc2F)n[nH]1` [AZ-960], the remaining activity at 1.25 µM in assay [1] (Well no.=2980) was found to be 93.6%. Also, the remaining activity at 3.75 µM in assay [2] (Well no.=2980) was found to be 92.7%.
With `CC(=O)Nc1cccc2c1c(Sc1ccc(Cl)cc1)c(C)n2CC(=O)O` [AZD1981], in assay [1] (Well no.=7131), the remaining activity at 1.25 µM is 98.7%. Also, the remaining activity at 3.75 µM in assay [2] (Well no.=7131) came out at 95.7%.
`CNC(=O)c1cccc(-c2ccc3c(N4CCOC[C@@H]4C)nc(N4CCOC[C@@H]4C)nc3n2)c1` [AZD2014]: the remaining activity at 1.25 µM in assay [1] (Well no.=5115) was 106%. The remaining activity at 3.75 µM in assay [2] (Well no.=5115) came out at 107%.
For `COc1nccnc1NS(=O)(=O)c1cccc(Cl)c1Cl` [AZD2098], in assay [1] (Well no.=8225), the remaining activity at 1.25 µM was determined as 102%. The remaining activity at 3.75 µM in assay [2] (Well no.=8225) came out at 98.6%.
On to `COC1CCN(C(=O)c2cc(Cc3n[nH]c(=O)c4ccccc34)ccc2F)CC1` [AZD2461], for which, in assay [1] (Well no.=5172), the remaining activity at 1.25 µM turned out to be 105%. Moreover, the remaining activity at 3.75 µM in assay [2] (Well no.=5172) was found to be 102%.
As to `COc1cc(CCc2cc(NC(=O)c3ccc(N4C[C@@H](C)N[C@@H](C)C4)cc3)n[nH]2)cc(OC)c1` [AZD4547], the remaining activity at 1.25 µM in assay [1] (Well no.=5125) came to 101%. Moreover, the remaining activity at 3.75 µM in assay [2] (Well no.=5125) was 93.9%.
Turning to `Cc1cc(-c2nnc(N)nc2-c2ccc(F)cc2)cc(Cl)n1` [AZD4635], the remaining activity at 1.25 µM in assay [1] (Well no.=8355) is 98.3%. The remaining activity at 3.75 µM in assay [2] (Well no.=8355) was 96%.
On to `CN[C@@H](C)C(=O)N[C@H](C(=O)N1CCC[C@H]1C(=O)N[C@H]1c2ccccc2C[C@H]1OCC#CC#CCO[C@@H]1Cc2ccccc2[C@@H]1NC(=O)[C@@H]1CCCN1C(=O)[C@@H](NC(=O)[C@H](C)NC)C1CCCCC1)C1CCCCC1` [AZD5582], for which the remaining activity at 1.25 µM in assay [1] (Well no.=6358) came out at 102%; in assay [1] (Well no.=8416), 98.4%. The remaining activity at 3.75 µM was determined as 101% in assay [2] (Well no.=6358) and 93.5% in assay [2] (Well no.=8416).
For `Cn1cnc2c(F)c(Nc3ccc(Br)cc3Cl)c(C(=O)NOCCO)cc21` [AZD6244], the remaining activity at 1.25 µM in assay [1] (Well no.=3028) stood at 95.9%. Moreover, in assay [2] (Well no.=3028), the remaining activity at 3.75 µM came to 95.3%.
Consider `CN(C)C(=O)c1ccc(S(=O)(=O)c2ccc(NC(=O)[C@@](C)(O)C(F)(F)F)c(Cl)c2)cc1` [AZD7545], for which the remaining activity at 1.25 µM in assay [1] (Well no.=8528) is 101%. Moreover, the remaining activity at 3.75 µM in assay [2] (Well no.=8528) is 98.2%.
For `NC(=O)Nc1cc(-c2cccc(F)c2)sc1C(=O)N[C@H]1CCCNC1` [AZD7762], the remaining activity at 1.25 µM in assay [1] (Well no.=2691) was determined as 94.4%. Moreover, the remaining activity at 3.75 µM in assay [2] (Well no.=2691) is 95%.
For `COc1ccc(-c2ccc3c(N4CCOC[C@@H]4C)nc(N4CCOC[C@@H]4C)nc3n2)cc1CO` [AZD8055], the remaining activity at 1.25 µM in assay [1] (Well no.=5293) was 99.1%. The remaining activity at 3.75 µM in assay [2] (Well no.=5293) was determined as 97.4%.
Regarding `Cc1cc(C(=O)NOCCO)c(Nc2ccc(I)cc2F)n(C)c1=O` [AZD8330], the remaining activity at 1.25 µM in assay [1] (Well no.=5104) came out at 107%. Besides, the remaining activity at 3.75 µM in assay [2] (Well no.=5104) came to 106%.
In the case of `CC(C)C[C@H](CO)Nc1nc(S[C@@H](C)c2ccccc2)nc2nc(N)sc12` [AZD8797], the remaining activity at 1.25 µM in assay [1] (Well no.=8313) turned out to be 103%. Besides, the remaining activity at 3.75 µM in assay [2] (Well no.=8313) is 103%.
Consider `CNC(=O)CN1CCC(Oc2cc3c(Nc4cccc(Cl)c4F)ncnc3cc2OC)CC1` [AZD8931], for which, in assay [1] (Well no.=5144), the remaining activity at 1.25 µM was determined as 103%. Besides, in assay [2] (Well no.=5144), the remaining activity at 3.75 µM stood at 102%.
For the molecule `C[C@@H](Oc1cc(NS(=O)(=O)N2CCC2)nc(SCc2cccc(F)c2F)n1)[C@@H](O)CO` [AZD-5069], the remaining activity at 1.25 µM in assay [1] (Well no.=8409) came out at 102%. Further, the remaining activity at 3.75 µM in assay [2] (Well no.=8409) amounted to 101%.
For `Cc1c2c(nn1C)CSCc1cc(n(C)n1)CSc1cc(c3ccccc3c1)OCCCc1c(C(=O)O)n(C)c3c-2c(Cl)ccc13` [AZD-5991], the remaining activity at 1.25 µM in assay [1] (Well no.=7076) turned out to be 101%. In addition, in assay [2] (Well no.=7076), the remaining activity at 3.75 µM was found to be 98.9%.
As to `Nc1nc(NC2CC2)c2ncn([C@H]3C=C[C@@H](CO)C3)c2n1` [Abacavir sulfate], the remaining activity at 1.25 µM in assay [1] (Well no.=5326) is 97.2%. Besides, the remaining activity at 3.75 µM in assay [2] (Well no.=5326) came to 95.9%.
Regarding `CC(=O)N[C@H](Cc1ccc2ccccc2c1)C(=O)N[C@H](Cc1ccc(Cl)cc1)C(=O)N[C@H](Cc1cccnc1)C(=O)N[C@@H](CO)C(=O)N(C)[C@@H](Cc1ccc(O)cc1)C(=O)N[C@H](CC(N)=O)C(=O)N[C@@H](CC(C)C)C(=O)N[C@@H](CCCCNC(C)C)C(=O)N1CCC[C@H]1C(=O)N[C@H](C)C(N)=O` [Abarelix] (Ac-[d2Nal][dPhe(4-Cl)][d3Pal]S[NMeY][dN]L[Lys(iPr)]P[dA]-NH2), in assay [1] (Well no.=6560), the remaining activity at 1.25 µM turned out to be 95.8%. The remaining activity at 3.75 µM in assay [2] (Well no.=6560) came out at 98.6%.
As to `C[C@]12CC[C@H](O)CC1=CC[C@@H]1[C@@H]2CC[C@]2(C)C(c3cccnc3)=CC[C@@H]12` [Abiraterone (CB-7598)], the remaining activity at 1.25 µM in assay [1] (Well no.=5047) came out at 101%. Besides, the remaining activity at 3.75 µM in assay [2] (Well no.=5047) worked out at 106%.
Turning to `CC(=O)O[C@H]1CC[C@@]2(C)C(=CC[C@@H]3[C@@H]2CC[C@]2(C)C(c4cccnc4)=CC[C@@H]32)C1` [Abiraterone Acetate (CB7630)], in assay [1] (Well no.=5274), the remaining activity at 1.25 µM came to 88.4%. Also, the remaining activity at 3.75 µM in assay [2] (Well no.=5274) was 79.5%.
